The source made the active and inactive calls.
Legend:
[1] = target: Neurotensin receptor type 1 (Homo sapiens, UniProt P30989); assay type: functional;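 also: Image-based confirmatory dose-response assay measuring agonist activity at NTR1; NTR1-expressing U2OS osteosarcoma cells imaged for beta-arrestin GFP spot formation; agonist potency where compounds increase beta-arrestin recruitment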
CAAX prenyl protease 1 = CAAX prenyl protease 1 (Saccharomyces cerevisiae S288c, UniProt P47154); experiment: yeast CAAX protease Ste24 inhibition – biochemical, S. cerevisiae, plate reader, cherry-pick, dose response (AID 488815)
Chain of CAAX prenyl protease 1 (P47154 whole entry): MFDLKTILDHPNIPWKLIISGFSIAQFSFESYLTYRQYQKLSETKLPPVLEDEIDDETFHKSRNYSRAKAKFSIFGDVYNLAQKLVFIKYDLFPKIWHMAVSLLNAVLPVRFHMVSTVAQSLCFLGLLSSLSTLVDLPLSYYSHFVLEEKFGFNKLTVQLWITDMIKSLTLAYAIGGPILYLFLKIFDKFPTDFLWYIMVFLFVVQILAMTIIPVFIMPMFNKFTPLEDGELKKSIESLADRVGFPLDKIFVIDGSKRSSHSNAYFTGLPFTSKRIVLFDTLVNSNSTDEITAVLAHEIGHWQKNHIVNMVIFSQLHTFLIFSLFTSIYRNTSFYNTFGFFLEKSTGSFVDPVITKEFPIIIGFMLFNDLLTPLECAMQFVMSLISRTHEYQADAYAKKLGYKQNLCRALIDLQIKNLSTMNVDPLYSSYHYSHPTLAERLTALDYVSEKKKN

[2] = target: Serine/threonine-protein phosphatase (Homo sapiens, UniProt Q9BPW0); experiment: inhibition of protein phosphatase 5 activity – biochemical, fluorescence, dose response (AID 2395)
Chain of Serine/threonine-protein phosphatase (Q9BPW0 whole entry): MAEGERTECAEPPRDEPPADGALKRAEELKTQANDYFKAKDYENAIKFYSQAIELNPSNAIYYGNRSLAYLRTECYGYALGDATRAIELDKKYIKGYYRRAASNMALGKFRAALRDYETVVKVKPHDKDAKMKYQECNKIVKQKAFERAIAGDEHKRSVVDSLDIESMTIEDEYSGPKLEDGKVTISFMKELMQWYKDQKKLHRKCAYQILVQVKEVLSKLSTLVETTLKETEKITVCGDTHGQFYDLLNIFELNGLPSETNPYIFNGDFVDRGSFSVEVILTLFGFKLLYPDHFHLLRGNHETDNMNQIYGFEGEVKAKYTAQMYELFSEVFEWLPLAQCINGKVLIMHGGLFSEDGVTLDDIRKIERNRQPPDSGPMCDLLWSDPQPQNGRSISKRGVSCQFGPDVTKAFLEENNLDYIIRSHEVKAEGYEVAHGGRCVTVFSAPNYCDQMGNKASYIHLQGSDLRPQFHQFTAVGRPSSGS

[3] = target: Heat shock protein HSP 90-alpha (Homo sapiens, UniProt P07900); experiment: Luminescence-based dose response biochemical high throughput screening assay for inhibitors of the Heat Shock Protein 90 (HSP90). [Related pubchem assays: 1831 (Summary AID.), 1846 (Confirmation screen.), 1789 (Primary screen.)]
[4] = target: T1, Histone-lysine N-methyltransferase NSD2 (Homo sapiens, UniProt O96028); assay type: biochemical
T1 sequence (O96028 whole entry): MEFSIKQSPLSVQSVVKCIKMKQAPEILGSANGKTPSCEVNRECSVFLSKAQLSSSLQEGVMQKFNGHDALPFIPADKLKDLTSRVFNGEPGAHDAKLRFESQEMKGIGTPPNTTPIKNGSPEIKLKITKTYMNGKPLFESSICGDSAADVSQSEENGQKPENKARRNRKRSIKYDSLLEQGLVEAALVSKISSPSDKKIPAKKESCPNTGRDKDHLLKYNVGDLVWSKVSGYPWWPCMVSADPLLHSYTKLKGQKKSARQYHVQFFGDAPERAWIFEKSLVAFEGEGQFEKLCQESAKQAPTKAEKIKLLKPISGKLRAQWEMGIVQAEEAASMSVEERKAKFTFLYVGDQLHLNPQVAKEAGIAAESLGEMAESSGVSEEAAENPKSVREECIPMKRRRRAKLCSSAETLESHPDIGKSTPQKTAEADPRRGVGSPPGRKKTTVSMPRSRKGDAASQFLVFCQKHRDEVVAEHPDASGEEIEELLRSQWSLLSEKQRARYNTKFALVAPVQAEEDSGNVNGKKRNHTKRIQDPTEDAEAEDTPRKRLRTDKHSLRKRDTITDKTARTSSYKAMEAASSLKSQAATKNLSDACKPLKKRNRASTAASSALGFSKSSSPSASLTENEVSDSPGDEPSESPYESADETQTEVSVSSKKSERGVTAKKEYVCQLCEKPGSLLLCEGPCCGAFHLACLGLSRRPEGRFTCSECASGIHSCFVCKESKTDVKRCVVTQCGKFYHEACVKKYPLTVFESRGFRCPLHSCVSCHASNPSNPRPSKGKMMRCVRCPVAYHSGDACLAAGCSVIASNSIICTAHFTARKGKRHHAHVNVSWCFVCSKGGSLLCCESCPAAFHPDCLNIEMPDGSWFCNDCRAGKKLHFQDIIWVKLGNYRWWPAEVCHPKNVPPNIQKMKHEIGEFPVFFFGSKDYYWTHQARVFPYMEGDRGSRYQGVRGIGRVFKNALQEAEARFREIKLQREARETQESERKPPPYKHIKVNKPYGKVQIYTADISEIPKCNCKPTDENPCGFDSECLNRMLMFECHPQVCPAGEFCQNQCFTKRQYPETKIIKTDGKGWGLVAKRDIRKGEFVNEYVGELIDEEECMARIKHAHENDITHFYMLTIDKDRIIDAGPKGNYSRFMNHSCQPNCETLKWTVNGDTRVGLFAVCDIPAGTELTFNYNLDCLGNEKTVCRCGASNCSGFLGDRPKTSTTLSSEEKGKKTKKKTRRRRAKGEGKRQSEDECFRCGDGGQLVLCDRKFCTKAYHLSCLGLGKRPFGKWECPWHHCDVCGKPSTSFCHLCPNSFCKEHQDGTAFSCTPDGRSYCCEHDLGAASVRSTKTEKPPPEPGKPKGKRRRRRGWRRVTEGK

Hexokinase HKDC1 = target: T2, Hexokinase HKDC1 (Homo sapiens, UniProt Q2TB90); experiment: inhibition of HKDC1 glucose phosphorylation – biochemical, W721R variant, dose response (AID 504729); assay type: functional
T2 sequence (Q2TB90 whole entry): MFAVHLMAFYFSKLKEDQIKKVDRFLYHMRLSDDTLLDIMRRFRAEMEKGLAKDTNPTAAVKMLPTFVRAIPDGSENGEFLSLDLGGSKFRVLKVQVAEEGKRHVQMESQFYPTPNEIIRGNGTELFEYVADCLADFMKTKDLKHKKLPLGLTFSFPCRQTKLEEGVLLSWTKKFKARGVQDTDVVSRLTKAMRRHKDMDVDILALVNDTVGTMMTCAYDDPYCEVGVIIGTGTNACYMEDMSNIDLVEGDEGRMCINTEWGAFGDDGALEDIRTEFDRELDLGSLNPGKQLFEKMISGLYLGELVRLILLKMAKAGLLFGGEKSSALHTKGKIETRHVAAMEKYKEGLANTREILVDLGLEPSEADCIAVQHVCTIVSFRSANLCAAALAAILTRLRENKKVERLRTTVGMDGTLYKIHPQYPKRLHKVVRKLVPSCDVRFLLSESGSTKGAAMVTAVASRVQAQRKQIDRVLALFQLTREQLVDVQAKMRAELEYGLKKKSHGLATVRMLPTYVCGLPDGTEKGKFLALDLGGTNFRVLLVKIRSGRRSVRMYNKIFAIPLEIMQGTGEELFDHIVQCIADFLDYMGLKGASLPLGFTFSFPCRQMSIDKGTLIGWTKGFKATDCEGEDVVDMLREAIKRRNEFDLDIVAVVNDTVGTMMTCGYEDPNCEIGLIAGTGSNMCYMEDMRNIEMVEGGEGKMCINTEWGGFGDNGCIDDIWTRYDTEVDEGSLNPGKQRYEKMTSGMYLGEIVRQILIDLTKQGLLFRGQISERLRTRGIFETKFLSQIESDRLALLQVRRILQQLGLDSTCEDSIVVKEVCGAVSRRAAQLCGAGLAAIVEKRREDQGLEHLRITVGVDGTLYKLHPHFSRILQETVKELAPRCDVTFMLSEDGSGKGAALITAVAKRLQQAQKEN

[5] = target: T3, DNA repair protein RAD52 homolog (Homo sapiens, UniProt P43351); assay type: functional, biochemical
T3 sequence (P43351 whole entry): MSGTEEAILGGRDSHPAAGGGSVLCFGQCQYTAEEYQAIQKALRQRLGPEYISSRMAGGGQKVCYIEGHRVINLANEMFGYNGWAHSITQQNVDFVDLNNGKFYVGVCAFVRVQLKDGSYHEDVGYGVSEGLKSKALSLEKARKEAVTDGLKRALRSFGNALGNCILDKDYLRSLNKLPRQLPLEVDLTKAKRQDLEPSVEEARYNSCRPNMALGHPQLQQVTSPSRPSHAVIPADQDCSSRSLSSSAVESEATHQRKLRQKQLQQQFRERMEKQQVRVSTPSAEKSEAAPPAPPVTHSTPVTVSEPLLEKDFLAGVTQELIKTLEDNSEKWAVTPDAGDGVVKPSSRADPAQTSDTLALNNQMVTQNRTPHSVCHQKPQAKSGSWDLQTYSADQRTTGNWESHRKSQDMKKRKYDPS

Chain of Neurotensin receptor type 1 (P30989 whole entry): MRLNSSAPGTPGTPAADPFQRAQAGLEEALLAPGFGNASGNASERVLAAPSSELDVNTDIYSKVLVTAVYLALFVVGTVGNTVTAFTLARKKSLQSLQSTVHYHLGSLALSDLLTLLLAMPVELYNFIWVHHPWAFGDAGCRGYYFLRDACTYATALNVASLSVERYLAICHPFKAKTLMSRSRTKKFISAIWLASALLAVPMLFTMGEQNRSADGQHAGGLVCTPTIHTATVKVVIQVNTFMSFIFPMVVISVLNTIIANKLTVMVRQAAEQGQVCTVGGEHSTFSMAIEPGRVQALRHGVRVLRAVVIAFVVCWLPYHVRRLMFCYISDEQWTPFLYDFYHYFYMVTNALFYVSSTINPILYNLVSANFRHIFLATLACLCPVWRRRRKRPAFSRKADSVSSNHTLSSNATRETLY

## CCCCCCCCCCOC(=O)Cn1c(COc2cccc(OC)c2)[n+](C)c2ccccc21
[1]
  EC50: 14.3 µM (active)
CAAX prenyl protease 1
  AC50: 2.11 µM (active)

## CCc1ccc(S(=O)(=O)/N=C2\C=C(Nc3cccc(C(=O)O)c3)C(=O)c3ccccc32)cc1
[2]
  IC50: 6.85 µM (active)
[3]
  IC50: 926 nM (active)
[4]
  AC50: 263 nM (active)
Hexokinase HKDC1
  IC50: 4.78 µM (active)

## COc1cc2c(cc1OC)-c1c(OC)c(OC)cc3c1C(C2)N(C)CC3 (configuration not stated)
[5]
  AC50: 2.14 µM (active)

From ChEMBL document CHEMBL1201862, “PubChem BioAssay data set” (2004)
